For series [1], the system named is HepG2 cells. The experiment in a line: Cellular uptake in HepG2 2D cell model with deoxycholic acid pretreatment. Conditions: HepG2 2D model, deoxycholic acid 0.5 h, then 10 μM compound 2 h. The series is classed as cell-based, human. The method, then: Cellular uptake of G2 and CPT into 2D HepG2 cell model was performed as described previously with slight modifications. […] Then, cells were cultured in an incubator at 37 °C. After reached 80% confluence, cell monolayers were pretreated with deoxycholic acid at different concentrations for 0.5 h. Next, the inhibitor of deoxycholic acid was removed and cells were washed twice with Hank’s balanced salt solution (HBSS). After 2 h incubation with 10 μM G2 or CPT, cells were washed three times with HBSS and digested with 200 μL of trypsin for 2 min to obtain single cell suspensions. Next, the cells were washed three times with cold HBSS and 250 μL of HBSS was added to resuspend the pellets. Then, the cells were lysed by freeze-thaw three times and sonicated for 10 min. […] The compound concentration was calculated by the corresponding standard curve. The protein concentration of the supernatant was determined by the Bradford method based on a standard curve made by desired concentrations of bovine serum albumin. The cellular uptake was presented as the quantity of G2 or CPT associated with 1 mg of cellular protein [32, 33].
(§1) Both G2 and CPT were measured by HPLC analysis, which was performed using a Shimadzu HPLC system (Shimadzu, Kyoto, Japan). […] The column was maintained at 30 °C and the absorbance detector wavelength was 363 nm. […]

Series [2] deals with HepG2 spheroids. The experiment in a line: Cellular uptake in HepG2 3D spheroid cell model with deoxycholic acid pretreatment. The series is classed as cell-based, human. Conditions: HepG2 3D model. The method, then: The liquid overlay method was employed for the culturing of HepG2 spheroids as described previously. Cells reached logarithmic growth phase were digested by trypsin then centrifuged. The cell number was counted using a hemocytomete and cells were diluted in growth medium to a density of 1 × 10^4 cells/mL. Spheroids were seeded by pipetting 2 mL of the cell suspension into each well of a 6-well ultra-low attachment (ULA) plates (Corning®, Wujiang, China) and incubated for 3 days.
After HepG2 spheroids were prepared as 3.3, they were transferred into 4 mL centrifuge tube and washed twice with HBSS. Then, the spheroids were resuspended with deoxycholic acid at different concentrations and seeded into the 6-well ULA plates again. After being cultured in an incubator for 0.5 h at 37 °C, the spheroids were transferred into 4 mL centrifuge tube and washed twice with HBSS to remove the deoxycholic acid. Then, they were resuspended with 10 μM G2 or CPT and seeded into the 6-well ULA plates. After being cultured in an incubator for 2 h at 37 °C, the spheroids were transferred into 4 mL centrifuge tube and washed three times with HBSS. […]
as §1

Series [3] can be described thus: Stability in simulated gastric fluid (SGF). Conditions: 3 h. Format: in vitro ADME. The method, then: (§2) The stability of G2 and CPT was assessed in SGF, SIF and fresh rat plasma. SGF and SIF were prepared according to a previous report with slight modifications. Briefly, 0.3% (w/v) purified pepsin, 2 g of NaCl and 7 mL of HCl (12 M) were dissolved in 1000 mL of distilled water to obtain SGF (PH 1.2). To make SIF (PH 6.8), 6.8 g of KH2PO4, 1.0% (w/v) purified pancreatin and 77 mL of NaOH (0.2 M) were dissolved in 1000 mL of distilled water. SGF, SIF and rat plasma containing 10 μM G2 or CPT were incubated at 37 °C. At scheduled time points (0, 5, 10, 20, 30, 60, 90, 120, 180 min), 100 μL samples were collected and reaction was quenched immediately by adding 400 μL of ice cold acetonitrile. The mixture was votexed 2 min and centrifuged at 12000 rpm for 10 min. Then, the supernatant was filtered with a filter (0.22 μm) and detected by HPLC.
(§3) To determine the concentration of G2 and CPT in the stability investigation, a C18 (5 μm, 4.6 × 250 mm, Elite, Dalian, China) reverse-phase column was used. The chromatographic separation was performed on isocratic elution with acetonitrile-0.1% formic acid (80:20, v/v) and acetonitrile-0.1% formic acid (60:40, v/v) for G2 and CPT, respectively. Other conditions were the same as cell model.

Series [4] can be described thus: Stability in simulated intestinal fluid (SIF). The series is classed as in vitro ADME. The following applies: SIF pH 6.8, 10 μM, 37 °C, 3 h. On the procedure:
as §2, §3

A short description of series [5]: Stability in fresh rat plasma. The series is classed as in vitro ADME. The following applies: 10 μM, 3 h. The method, then:
as §2, §3

A short description of series [6]: In vivo body distribution and pharmacokinetics after oral administration. Further details: species or system Kunming mice. The following applies: male, Kunming, mouse. The method, then:
For body distribution investigations, 80 male Kunming mice (weight, 18–22 g; age, 6–8 weeks) were used. The animal experiments in this study were performed under the guidance of the care and use of laboratory animals in Zhejiang University of Technology, Hangzhou, China, and conformed to the National Institutes of Health Guide for Care and Use of Laboratory Animals (Publication No. 85-23). After fasting overnight, mice were received a single dose of G2 or CPT (30 mg/kg, calculated as CPT) suspension by gavage. At desired time (0.5, 1, 2, 4, 6, 8, 12 h), animals were sacrificed. Their blood samples were collected by eyeball removal and immediately centrifuged to separate plasma. The organs (heart, liver, spleen, lung, kidney) were removed and weighed before homogenization. And the plasma and tissue homogenate samples were stored at −80 °C until analysis.
For determination of the compound concentration, 200 μL methanol and 100 μL acetonitrile were added to 100 μL plasma or tissue homogenate to precipitate protein, and 5 μL IS (2 μM) was also added. Mixtures were votexed for 2 min and centrifuged at 12,000 rpm for 10 min at 4 °C. Then, supernatant was transferred to a new tube and evaporated by an EZ-2 personal solvent evaporator (Genevac, Suffolk, UK). Finally, 50 μL of 50% acetonitrile (v/v) was added to re-dissolve the samples. After centrifuged at 13,000 rpm for 10 min, the supernatant was used for HPLC analysis.
To determine G2 and CPT concentration in plasma and tissue homogenate, an Inertsil ODS-SP C18 column (5 μm, 4.6 × 250 mm; GL Sciences) was used. The mobile phase was made up of acetonitrile (A) and 0.1% formic acid (B). CPT was separated by an isocratic elution with 35:65 (v/v) A:B. A gradient eluant ((A:B) 0–3 min: 35:65; 3–8 min: from 35:65 to 80:20; 8–20 min: 80:20; 20–21 min: from 80:20 to 35:65; 21–25 min: 35:65) was used to separate G2. Other conditions were the same as cell model.
The pharmacokinetic analysis using a non-compartmental model with the PKSolver pharmacokinetic software (China Pharmaceutical University, Nanjing, China) was conducted to calculate the key parameters of G2 and CPT. In order to evaluate whether the conjugate had the trend of liver targeting, liver targeting index (LTI) was calculated by Equation (1) below:LTI = AUC0–t’ in liver/AUC0–t in plasma (1) where AUC0–t’ in liver is the AUC0–t of drug in liver and AUC0–t in plasma is the AUC0–t of drug in plasma. All the data were presented as mean ± SD. Statistical analysis were performed by Student’s t-test using the SPSS 22.0 statistical software program (IBM company, Denver, CO, USA), and p < 0.05 was used as the criterion for statistical significant.

Series [7] has as its system HepG2 cells. Kind of series: Competitive inhibition of antitumor activity (MTT assay) with deoxycholic acid pretreatment. The following applies: for effect of deoxycholic acid pretreatment on cytotoxicity: HepG2, 1 μM deoxycholic acid 0.5 h, then 1 μM compound 48 h; for viability at 1 µM: Homo sapiens.
Protocol: After reaching logarithmic growth phase, HepG2 cells were passaged and 100 μL of the cell suspension was seeded into 96-well plates at a density of 5 × 10^4 cells/mL, then cells were cultured in an incubator (Thermo Fisher Scientific, Marietta, Ohio, USA) at 37 °C. After reached 80% confluence, cell monolayers were firstly incubated with or without 1 μM deoxycholic acid for 0.5 h. […] Next, cells were further incubated at 37 °C for 48 h. Then 20 μL of MTT reagent (5 mg/mL in PBS) was added and cells were incubated for another 4 h at 37 °C to allow MTT to be metabolized into formazan. Finally, the media was tapped out and 150 μL of DMSO was added to each well to dissolve the formazan crystals. After mixing, the absorbance was quantified at 490 nm using an ELISA Plate Reader (infinite M200 Pro, TECAN, Grodig, Salzburg, Austria).
Setting [8] is: heart, po, 30 mg/kg, mice, oral 30 mg/kg calculated as CPT.
[9] abbreviates: kidney, po, 30 mg/kg, mice, oral 30 mg/kg calculated as CPT.
Where [10] appears, read: liver, po, 30 mg/kg, mice, oral 30 mg/kg calculated as CPT.
[11] abbreviates: lung, po, 30 mg/kg, mice, oral 30 mg/kg calculated as CPT.
Setting [12] is: plasma, po, 30 mg/kg, mice, oral 30 mg/kg calculated as CPT.
Setting [13] is: spleen, po, 30 mg/kg, mice, oral 30 mg/kg calculated as CPT.

Structures are written as SMILES. Where two headings read alike, the source gives them in different places.

Regarding `CC[C@@]1(O)C(=O)OCc2c1cc1n(c2=O)Cc2cc3ccccc3nc2-1` [CPT, Camptothecin], in series [1], the “effect of deoxycholic acid pretreatment on uptake” value is “no obvious change”. Moreover, the “effect of deoxycholic acid on cellular uptake” value in series [2] (deoxycholic acid 0.5 h, then 10 μM compound 2 h) is listed as “no distinct effect”. The “degraded rate after incubation in SGF” value in series [3] (SGF pH 1.2, 10 μM, 37 °C) is reported as 37.9%. Moreover, in series [4], the “degraded after incubation in SIF” value is on record as 16.1%. In addition, in series [5] (fresh rat plasma, 37 °C), the “remaining after incubation in rat plasma” value came out at 24.4%. Moreover, the MRT inf in series [6] (heart, po, 30 mg/kg, heart, mice, oral 30 mg/kg calculated as CPT, read-out: MRT0–∞) is 6.35 ± 2.71 h; in series [6] (kidney, po, 30 mg/kg, kidney, mice, oral 30 mg/kg calculated as CPT, read-out: MRT0–∞), 5.32 ± 0.46 h; in series [6] (liver, po, 30 mg/kg, liver, mice, oral 30 mg/kg calculated as CPT, read-out: MRT0–∞), 4.26 ± 0.38 h; in series [6] (lung, po, 30 mg/kg, lung, mice, oral 30 mg/kg calculated as CPT, read-out: MRT0–∞), 7.25 ± 1.77 h; in series [6] (plasma, po, 30 mg/kg, plasma, mice, oral 30 mg/kg calculated as CPT, read-out: MRT0–∞) it was 3.22 ± 0.578 h; in series [6] (spleen, po, 30 mg/kg, spleen, mice, oral 30 mg/kg calculated as CPT, read-out: MRT0–∞), 6.96 ± 2.95 h. Also, the AUC(0-inf) in series [6] (setting [8]) was 3.64 ± 1.61 µM·h; in series [6] (setting [9]) it was 5.45 ± 1.19 µM·h; in series [6] (setting [10]), 7.46 ± 1.54 µM·h; in series [6] (setting [11]) it was 12.4 ± 4.43 µM·h; in series [6] (setting [12]), 1.68 ± 0.252 µM·h; in series [6] (setting [13]) it was 9.29 ± 2.53 µM·h. Besides, the AUC(0-t) in series [6] (setting [8]) was 2.86 ± 0.983 µM·h; in series [6] (setting [9]), 4.83 ± 1.04 µM·h; in series [6] (setting [10]), 6.95 ± 1.32 µM·h; in series [6] (setting [11]), 9.8 ± 2.59 µM·h; in series [6] (setting [12]), 1.56 ± 0.26 µM·h; in series [6] (setting [13]), 7.56 ± 1.72 µM·h. Moreover, the Cmax in series [6] (setting [8]) is 954 ± 207 nM; in series [6] (setting [9]), 1330 ± 218 nM; in series [6] (setting [10]), 2080 ± 243 nM; in series [6] (setting [11]), 1640 ± 325 nM; in series [6] (setting [12]) it was 465 ± 84 nM; in series [6] (setting [13]) it was 1530 ± 195 nM. Besides, the Tmax in series [6] (setting [8]) is 0.6 ± 0.2 h; in series [6] (setting [9]), 0.8 ± 0.245 h; in series [6] (setting [10]), 1 h; in series [6] (setting [11]) it was 1.2 ± 0.4 h; in series [6] (setting [12]), 0.5 h; in series [6] (setting [13]) it was 0.9 ± 0.2 h. For the same compound, in series [6] (liver and plasma, mice, oral 30 mg/kg calculated as CPT, read-out: liver targeting index (LTI) = AUC0–t in liver/AUC0–t in plasma), the Kp is 4.84. Further, the “effect of deoxycholic acid pretreatment on cytotoxicity” value in series [7] was “no distinct effects”.
`CC[C@@]1(OC(=O)COC(=O)CC[C@@H](C)[C@H]2CC[C@H]3[C@@H]4CC[C@@H]5C[C@H](O)CC[C@]5(C)[C@H]4C[C@H](O)[C@]23C)C(=O)OCc2c1cc1n(c2=O)Cc2cc3ccccc3nc2-1` [G2, CPT-20 (S)-O-acetate-deoxycholic acid]: the “decrease of cellular uptake compared to deoxycholic acid-free group” value in series [2] (pretreatment with 200 μM deoxycholic acid 0.5 h, 10 μM compound 2 h) was 66.4%. In addition, the “degraded rate after incubation in SGF” value in series [3] (10 μM, pH 1.2) is 15.0%. Moreover, the “remaining after incubation in rat plasma” value in series [5] (rat, plasma) stood at 42.3%. In addition, in series [6] (in vivo, po), the “AUC0–t in liver relative to CPT” value is reported as 2.31 fold and the “increase of liver targeting index in comparison to CPT” value is recorded as 1.67 fold. The Kp in series [6] (in vivo, po, 30 mg/kg) came to 8.07. In series [6] (in vivo, po, 30 mg/kg, MRT0–∞), the MRT inf was 4.36 ± 0.645 h. Also, the “effect of deoxycholic acid pretreatment on cytotoxicity” value in series [7] is given as “markedly reduced”. Further, the viability at 1 µM in series [7] (HepG2, read-out: cell viability, HepG2, 1 μM compound 48 h, after pretreatment with 1 μM deoxycholic acid for 0.5 h) was 71.1%. The viability at 1 µM in series [7] (HepG2, read-out: cell viability, HepG2, 1 μM compound 48 h, without deoxycholic acid pretreatment) was 51.3%.

Values taken from publication PMC6472190, “Enhanced Liver Targeting of Camptothecin via Conjugation with Deoxycholic Acid” (Molecules, 2019).
